Assay results as given in ChEMBL document CHEMBL6083221, “11-Azaartemisinin derivatives bearing halogenated aromatic moieties: Potent anticancer agents with high tumor selectivity” (Bioorg Med Chem Lett, 2024).

How the values were obtained:
KB = experiment: Antiproliferative activity against human KB cells; type: functional, cell-based
HepG2 = experiment: Antiproliferative activity against human HepG2 cells; type: functional, cell-based
A549 = experiment: Antiproliferative activity against human A549 cells; type: functional, cell-based
[1] = Cytotoxicity against human HEK293 cells; type: toxicity, cell-based
[2] = Selectivity ratio of IC50 for human HEK293 cells to IC50 for human KB cells; type: toxicity; conditions: HEK293 cells versus KB cells, read-out: Ratio IC50
[3] = Selectivity ratio of IC50 for human HEK293 cells to IC50 for human HepG2 cells; type: toxicity; conditions: HEK293 cells versus HepG2 cells, read-out: Ratio IC50
[4] = Selectivity ratio of IC50 for human HEK293 cells to IC50 for human A549 cells; type: toxicity; conditions: HEK293 cells versus A549 cells, read-out: Ratio IC50

Work on `C[C@@H]1CC[C@H]2[C@@H](C)C(=O)N(Cc3cn(-c4cccc(F)c4)nn3)[C@@H]3O[C@@]4(C)CC[C@@H]1[C@@]23OO4` yielded an IC50 (KB) greater than 280 µM, an IC50 (HepG2) greater than 280 µM and an IC50 (A549) greater than 280 µM.
In the case of `C[C@@H]1CC[C@H]2[C@@H](C)C(=O)N(Cc3cn(-c4ccc(Br)cc4)nn3)[C@@H]3O[C@@]4(C)CC[C@@H]1[C@@]23OO4`, the IC50 (KB) is reported as 26.4 µM, the IC50 (HepG2) is reported as 34.9 µM and the IC50 (A549) is reported as 45.9 µM.
Compound `C[C@@H]1CC[C@H]2[C@@H](C)C(=O)N(Cc3cn(-c4ccc(I)cc4)nn3)[C@@H]3O[C@@]4(C)CC[C@@H]1[C@@]23OO4` has an IC50 (KB) of 10.3 µM, an IC50 (HepG2) of 31.3 µM and an IC50 (A549) of 9.2 µM. The IC50 [1] was 12.4 µM.
`C[C@@H]1CC[C@H]2[C@@H](C)C(=O)N(Cc3cn(-c4cccc(Br)c4)nn3)[C@@H]3O[C@@]4(C)CC[C@@H]1[C@@]23OO4` gave an IC50 (KB) of 7.7 µM, an IC50 (HepG2) of 42.5 µM and an IC50 (A549) of 15.5 µM. The IC50 [1] was greater than 247 µM, the selectivity ratio [2] was 32 and the selectivity ratio [3] was 6. For the same compound, the selectivity ratio [4] was 16.
With `C[C@@H]1CC[C@H]2[C@@H](C)C(=O)N(Cc3cn(-c4ccccc4I)nn3)[C@@H]3O[C@@]4(C)CC[C@@H]1[C@@]23OO4` the IC50 (KB) was 34.1 µM, the IC50 (HepG2) was 49.3 µM and the IC50 (A549) was 27.7 µM.
For `Cc1c2ccncc2c(C)c2c1[nH]c1ccccc12` [ELLIPTECINE], the IC50 (KB) was 1.7 µM, the IC50 (HepG2) was 1.7 µM and the IC50 (A549) was 1.7 µM. It also gave an IC50 [1] of 6.3 µM.
`C[C@@H]1CC[C@H]2[C@@H](C)C(=O)N(Cc3cn(-c4cccc(I)c4)nn3)[C@@H]3O[C@@]4(C)CC[C@@H]1[C@@]23OO4` showed an IC50 (KB) of 10.6 µM, an IC50 (HepG2) of 9.4 µM and an IC50 (A549) of 135 µM. The IC50 [1] was 46.3 µM, the selectivity ratio [2] was 4 and the selectivity ratio [3] was 5.
Compound `C[C@@H]1CC[C@H]2[C@@H](C)C(=O)N(Cc3cn(-c4cccc(Cl)c4)nn3)[C@@H]3O[C@@]4(C)CC[C@@H]1[C@@]23OO4` has an IC50 (KB) of 235 µM, an IC50 (HepG2) of 215 µM and an IC50 (A549) of 151 µM.
In the case of `C[C@@H]1CC[C@H]2[C@@H](C)C(=O)N(Cc3cn(-c4ccccc4Br)nn3)[C@@H]3O[C@@]4(C)CC[C@@H]1[C@@]23OO4`, the IC50 (KB) is reported as 32.3 µM, the IC50 (HepG2) is reported as 42.5 µM and the IC50 (A549) is reported as 32.9 µM.
